Reference: patent US20240109917A1 (ACTELION PHARMACEUTICALS LTD, priority 2020, published 2024)
Like-named read-outs stand apart in the source and are kept apart here.

Target: PDGFRβ (Rattus norvegicus (Rat), UniProt Q05030)
Assay: PDGFRβ Cellular Assay (PDGFRb P-Y751 HTRF in A10 cells stimulated with PDGF-BB)
Format: cell-based
Outline: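 Rat A10 cells, plated overnight, were treated with compound for 3 hours, then stimulated with PDGF-BB (working stock 100 ng/mL in 10% FBS medium). After lysis, PDGFRβ P-Y751 was detected by HTRF.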

PDGFRβ, sequence (Q05030 32-1097): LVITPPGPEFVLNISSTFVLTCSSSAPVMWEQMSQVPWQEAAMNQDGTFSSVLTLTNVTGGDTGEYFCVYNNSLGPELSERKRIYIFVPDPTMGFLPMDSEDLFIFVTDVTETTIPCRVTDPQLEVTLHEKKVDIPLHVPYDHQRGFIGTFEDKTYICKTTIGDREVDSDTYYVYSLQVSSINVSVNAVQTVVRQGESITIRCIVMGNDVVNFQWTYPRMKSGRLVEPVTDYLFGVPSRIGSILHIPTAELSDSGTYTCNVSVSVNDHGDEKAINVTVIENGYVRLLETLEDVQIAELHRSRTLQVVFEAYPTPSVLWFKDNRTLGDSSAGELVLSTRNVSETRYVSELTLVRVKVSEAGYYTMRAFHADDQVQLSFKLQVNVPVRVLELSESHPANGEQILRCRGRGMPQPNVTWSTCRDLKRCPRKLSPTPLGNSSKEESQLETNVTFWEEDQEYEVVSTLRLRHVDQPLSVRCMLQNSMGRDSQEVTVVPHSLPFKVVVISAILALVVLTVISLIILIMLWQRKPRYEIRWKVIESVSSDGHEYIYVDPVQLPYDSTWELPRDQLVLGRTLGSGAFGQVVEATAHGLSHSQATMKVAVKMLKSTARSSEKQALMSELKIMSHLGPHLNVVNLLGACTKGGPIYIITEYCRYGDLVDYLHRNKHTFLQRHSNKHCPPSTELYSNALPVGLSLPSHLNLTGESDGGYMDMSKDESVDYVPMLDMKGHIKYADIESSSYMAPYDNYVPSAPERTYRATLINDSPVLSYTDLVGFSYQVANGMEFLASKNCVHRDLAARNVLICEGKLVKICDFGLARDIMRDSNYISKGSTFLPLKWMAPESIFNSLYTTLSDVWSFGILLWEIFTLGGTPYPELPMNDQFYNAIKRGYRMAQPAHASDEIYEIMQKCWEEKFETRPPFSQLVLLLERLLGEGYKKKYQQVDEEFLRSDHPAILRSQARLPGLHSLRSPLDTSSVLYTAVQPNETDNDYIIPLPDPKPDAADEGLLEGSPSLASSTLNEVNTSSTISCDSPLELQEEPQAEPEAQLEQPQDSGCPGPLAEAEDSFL

Q: Which IC50 (read-out: PDGFR Cellular IC50) does the source give for `Cc1ncc(C(=O)NCCN2CCCC2)cc1NC(=O)c1cnn2cc(-c3c(C)nn(C)c3C)sc12` [Example 223, N-(2-methyl-5-((2-(pyrrolidin-1-yl)ethyl)carbamoyl)pyridin-3-yl)-2-(1,3,5-trimethyl-1H-pyrazol-4-yl)pyrazolo[5,1-b]thiazole-7-carboxamide] here?
A: The IC50 was 69.5 nM.

Q: For `Cc1ncc(C(=O)NCCN2CCCC2(C)C)cc1NC(=O)c1cnn2cc(-c3cn(C)nc3CO)sc12` [Example 224, N-(5-((2-(2,2-dimethylpyrrolidin-1-yl)ethyl)carbamoyl)-2-methylpyridin-3-yl)-2-(3-(hydroxymethyl)-1-methyl-1H-pyrazol-4-yl)pyrazolo[5,1-b]thiazole-7-carboxamide], which IC50 (read-out: PDGFR Cellular IC50) is on record?
A: The IC50 was 903 nM.

Q: Which IC50 (read-out: PDGFR Cellular IC50) does the source give for `Cc1cc(C(=O)NCCN2CCCC2(C)C)sc1NC(=O)c1cnn2cc(-c3ccc(N)nc3)sc12` [Example 184, 2-(6-aminopyridin-3-yl)-N-(5-((2-(2,2-dimethylpyrrolidin-1-yl)ethyl)carbamoyl)-3-methylthiophen-2-yl)pyrazolo[5,1-b]thiazole-7-carboxamide] here?
A: Its IC50 is 1630 nM.

Q: `Cc1ncc(NC(=O)OC[C@H]2CCCN2C)cc1NC(=O)c1cnn2cc(-c3cnn(C)c3)sc12` [Example 244, (R)-(1-methylpyrrolidin-2-yl)methyl (6-methyl-5-(2-(1-methyl-1H-pyrazol-4-yl)pyrazolo[5,1-b]thiazole-7-carboxamido)pyridin-3-yl)carbamate] was tested. Which IC50 (PDGFR Cellular IC50) did it give?
A: The IC50 was 22.9 nM.

Q: With `COc1ncccc1-c1cn2ncc(C(=O)Nc3cc(C(=O)NCCN4CCCC4(C)C)cnc3C)c2s1` [Example 226, N-(5-((2-(2,2-Dimethylpyrrolidin-1-yl)ethyl)carbamoyl)-2-methylpyridin-3-yl)-2-(2-methoxypyridin-3-yl)pyrazolo[5,1-b]thiazole-7-carboxamide] as the compound, how does the IC50 (read-out: PDGFR Cellular IC50) read?
A: Its IC50 is 3.2 nM.

Q: With `Cc1ncc(C(=O)NCCN2CCCC2(C)C)cc1NC(=O)c1cnn2cc(-c3cnn(CCC(O)CO)c3)sc12` (centres unmarked) [Example 221, 2-(1-(3,4-Dihydroxybutyl)-1H-pyrazol-4-yl)-N-(5-((2-(2,2-dimethylpyrrolidin-1-yl)ethyl)carbamoyl)-2-methylpyridin-3-yl)pyrazolo[5,1-b]thiazole-7-carboxamide] as the compound, how does the IC50 (read-out: PDGFR Cellular IC50) read?
A: The IC50 was 1710 nM.

Q: For `Cc1ncc(NC(=O)OC[C@@H]2CCCN2C)cc1NC(=O)c1cnn2cc(-c3cnn(C)c3)sc12` [Example 243, (S)-(1-methylpyrrolidin-2-yl)methyl (6-methyl-5-(2-(1-methyl-1H-pyrazol-4-yl)pyrazolo[5,1-b]thiazole-7-carboxamido)pyridin-3-yl)carbamate], which IC50 (PDGFR Cellular IC50) is on record?
A: Its IC50 is 20.3 nM.

Q: For `Cc1cc(C(=O)NCCN2CCC(O)CC2)sc1NC(=O)c1cnn2cc(-c3cnn(C)c3)sc12` [Example 191, N-(5-((2-(4-hydroxypiperidin-1-yl)ethyl)carbamoyl)-3-methylthiophen-2-yl)-2-(1-methyl-1H-pyrazol-4-yl)pyrazolo[5,1-b]thiazole-7-carboxamide], which IC50 (read-out: PDGFR Cellular IC50) is on record?
A: Its IC50 is over 3000 nM.

Q: For `Cc1ncc(C(=O)NCCNCCO)cc1NC(=O)c1cnn2cc(-c3cnn(C)c3)sc12` [Example 234, N-(5-((2-((2-hydroxyethyl)amino)ethyl)carbamoyl)-2-methylpyridin-3-yl)-2-(1-methyl-1H-pyrazol-4-yl)pyrazolo[5,1-b]thiazole-7-carboxamide], which IC50 (read-out: PDGFR Cellular IC50) is on record?
A: Its IC50 is over 3000 nM.

Q: With `COCCn1cc(-c2cn3ncc(C(=O)Nc4cc(NC(=O)CCCN5CCC[C@@H]5C)cnc4C)c3s2)cn1` [Example 216, (S)-2-(1-(2-methoxyethyl)-1H-pyrazol-4-yl)-N-(2-methyl-5-(4-(2-methylpyrrolidin-1-yl)butanamido)pyridin-3-yl)pyrazolo[5,1-b]thiazole-7-carboxamide] as the compound, how does the IC50 (PDGFR Cellular IC50) read?
A: Its IC50 is 626 nM.

Q: For `Cc1ncc(NC(=O)OC[C@@H]2CCCN2C(C)C)cc1NC(=O)c1cnn2cc(-c3cnn(C)c3)sc12` [Example 245, (S)-(1-isopropylpyrrolidin-2-yl)methyl (6-methyl-5-(2-(1-methyl-1H-pyrazol-4-yl)pyrazolo[5,1-b]thiazole-7-carboxamido)pyridin-3-yl)carbamate], which IC50 (read-out: PDGFR Cellular IC50) is on record?
A: The IC50 was 18.1 nM.

Q: Which IC50 (read-out: PDGFR Cellular IC50) does the source give for `Cc1ncc(NC(=O)CN2CCc3cnn(C)c3C2)cc1NC(=O)c1cnn2cc(-c3cnn(C)c3)sc12` [Example 17, 2-(1-methyl-1H-pyrazol-4-yl)-N-(2-methyl-5-(2-(1-methyl-4,5-dihydro-1H-pyrazolo[3,4-c]pyridin-6 (7H)-yl)acetamido)pyridin-3-yl)pyrazolo[5,1-b]thiazole-7-carboxamide] here?
A: The IC50 was 69.5 nM.

Q: How did the IC50 (PDGFR Cellular IC50) turn out when `Cc1cc(C(=O)NCC(C)(C)N2CCCC2)sc1NC(=O)c1cnn2cc(-c3cnn(C)c3)sc12` [Example 202, 2-(1-methyl-1H-pyrazol-4-yl)-N-(3-methyl-5-((2-methyl-2-(pyrrolidin-1-yl)propyl)carbamoyl)thiophen-2-yl)pyrazolo[5,1-b]thiazole-7-carboxamide] was run?
A: Its IC50 is over 3000 nM.

Q: `Cc1ncc(C(=O)NCCN2CCCC23CCC3)cc1NC(=O)c1cnn2cc(-c3c(C)nn(C)c3C)sc12` [Example 214, N-(5-((2-(5-azaspiro[3.4]octan-5-yl)ethyl)carbamoyl)-2-methylpyridin-3-yl)-2-(1,3,5-trimethyl-1H-pyrazol-4-yl)pyrazolo[5,1-b]thiazole-7-carboxamide] was tested. Which IC50 (read-out: PDGFR Cellular IC50) did it give?
A: Its IC50 is 3.9 nM.

Q: With `Cc1cc(C(=O)NCCN2CCC(CO)CC2)sc1NC(=O)c1cnn2cc(-c3cnn(C)c3)sc12` [Example 193, N-(5-((2-(4-(hydroxymethyl)piperidin-1-yl)ethyl)carbamoyl)-3-methylthiophen-2-yl)-2-(1-methyl-1H-pyrazol-4-yl)pyrazolo[5,1-b]thiazole-7-carboxamide] as the compound, how does the IC50 (read-out: PDGFR Cellular IC50) read?
A: The IC50 was over 3000 nM.

Q: How did the IC50 (read-out: PDGFR Cellular IC50) turn out when `Cc1ncc(C(=O)NCCN2CCCC2(C)C)cc1NC(=O)c1cnn2cc(-c3cccc4c3cnn4C)sc12` [Example 240, N-(5-((2-(2,2-dimethylpyrrolidin-1-yl)ethyl)carbamoyl)-2-methylpyridin-3-yl)-2-(1-methyl-1H-indazol-4-yl)pyrazolo[5,1-b]thiazole-7-carboxamide] was run?
A: Its IC50 is 11.8 nM.

Q: With `Cc1ncc(C(=O)NCCN2CCCC2)cc1NC(=O)c1cnn2cc(-c3cnn(C)c3C)sc12` [Example 220, 2-(1,5-Dimethyl-1H-pyrazol-4-yl)-N-(2-methyl-5-((2-(pyrrolidin-1-yl)ethyl)carbamoyl)pyridin-3-yl)pyrazolo[5,1-b]thiazole-7-carboxamide] as the compound, how does the IC50 (read-out: PDGFR Cellular IC50) read?
A: The IC50 was 59 nM.

Q: How did the IC50 (read-out: PDGFR Cellular IC50) turn out when `Cc1ncc(NC(=O)CN2CCC3(COC3)C2)cc1NC(=O)c1cnn2cc(-c3cnn(C)c3)sc12` [Example 18, N-(5-(2-(2-oxa-6-azaspiro[3.4]octan-6-yl)acetamido)-2-methylpyridin-3-yl)-2-(1-methyl-1H-pyrazol-4-yl)pyrazolo[5,1-b]thiazole-7-carboxamide] was run?
A: Its IC50 is 49.8 nM.

Q: How did the IC50 (read-out: PDGFR Cellular IC50) turn out when `Cc1ncc(C(=O)NCCN2CCCC23CCC3)cc1NC(=O)c1cnn2cc(-c3cnn(C)c3C)sc12` [Example 209, N-(5-((2-(5-azaspiro[3.4]octan-5-yl)ethyl)carbamoyl)-2-methyl-pyridin-3-yl)-2-(1,5-dimethyl-1H-pyrazol-4-yl)pyrazolo[5,1-b]thiazole-7-carboxamide] was run?
A: Its IC50 is 2.8 nM.

Q: For `COc1ncccc1-c1cn2ncc(C(=O)Nc3cc(C(=O)NCCN4CCCC4)cnc3C)c2s1` [Example 229, 2-(2-Methoxypyridin-3-yl)-N-(2-methyl-5-((2-(pyrrolidin-1-yl)ethyl)carbamoyl)pyridin-3-yl)pyrazolo[5,1-b]thiazole-7-carboxamide], which IC50 (read-out: PDGFR Cellular IC50) is on record?
A: Its IC50 is 15.5 nM.
